Laboratory results taken from US20150030566A1, “ANTIMICROBIAL PEPTIDE COMPOSITIONS FOR PLANTS” (Stellenbosch University, priority 2012, published 2015).
Read-outs that look alike come from different tables or passages of the source. Non-standard residues stand in square brackets, D forms with d. Residues, ends and D or L forms follow the SMILES beside them. No end group written: not given here. Orn = NCCC[C@H](N)C(=O)O

Assays:
Fusarium solani = assay: Microdilution broth assay; assay type: cell-based; set-up: MIC against F. solani in PDB (n): unit not given beside the values; conditions: for MIC against F. solani in PDB (n): potato dextrose broth (low salt PDB)
Method: (§1) Microdilution broth and agar assays were used to assess the antifungal activity of the cyclic decapeptides in liquid media and on solid (gel) media, respectively.
(§2) The antibacterial activity of the tyrocidines and gramicidin S against all the bacteria tested was determined by the methods described by Du Toit E A and Rautenbach M (2000) J. Microbiol. Methods, 42, 159-165. The antifungal activity of the tyrocidines against all the […] tested was determined by the methods described by Troskie A M, Vlok N M and Rautenbach M (2012) J. Microbiol. Methods, 91, 551-558.

Botrytis cinerea = assay: Microdilution broth assay; assay type: cell-based; set-up: MIC + SEM / MIC against B. cinerea in PDB (n): unit not given beside the values
Method: as §1, §2

[1] = test system: Cylindrocarpon and Campylocarpon spp; conditions: 13 fungicides evaluated; Halleen et al. 2007; cited from earlier work
black foot disease = conditions: field conditions; Halleen et al. 2007; cited from earlier work
[2] = potato dextrose broth (low salt PDB)

Compound	MIC against F. solani in PDB (n) (Fusarium solani)	MIC against B. cinerea in PDB (n) (Botrytis cinerea; [2])	further results
CC(C)C[C@@H]1NC(=O)[C@H](CCCN)NC(=O)[C@H](C(C)C)NC(=O)[C@H](Cc2ccc(O)cc2)NC(=O)[C@H](CCC(N)=O)NC(=O)[C@H](CC(N)=O)NC(=O)[C@@H](Cc2ccccc2)NC(=O)[C@H](Cc2ccccc2)NC(=O)C2CCCN2C(=O)[C@@H](Cc2ccccc2)NC1=O (some centres unmarked) [TrcA, Cyclo-(VOLfPFfNQY)] (HELM PEPTIDE1{F.[dF].N.Q.Y.V.[Orn].L.[dF].[O=C(C1CCCN1[*:1])[*:2]]}$PEPTIDE1,PEPTIDE1,1:R1-10:R2$$$V2.0)	4.0 ± 0.4 (3)		MIC against B. cinerea in PDB (n) (Botrytis cinerea): 5.2 ± 0.6 (6)
CCCCNC(=O)n1c(NC(=O)OC)nc2ccccc21 [benomyl]			in vitro mycelial inhibition [1]: able to effectively reduce mycelial growth in all fungal strains tested; protection of propagation material against black foot disease (black foot disease): failed to protect propagation against black foot disease under field conditions
C=CCOC(Cn1ccnc1)c1ccc(Cl)cc1Cl (centres unmarked) [imazalil]			in vitro mycelial inhibition [1]: able to effectively reduce mycelial growth in all fungal strains tested; protection of propagation material against black foot disease (black foot disease): failed to protect propagation against black foot disease under field conditions
CCCN(CCOc1c(Cl)cc(Cl)cc1Cl)C(=O)n1ccnc1.CCCN(CCOc1c(Cl)cc(Cl)cc1Cl)C(=O)n1ccnc1.CCCN(CCOc1c(Cl)cc(Cl)cc1Cl)C(=O)n1ccnc1.CCCN(CCOc1c(Cl)cc(Cl)cc1Cl)C(=O)n1ccnc1.[Cl][Mn][Cl] [prochloraz manganese chloride]			in vitro mycelial inhibition [1]: able to effectively reduce mycelial growth in all fungal strains tested; protection of propagation material against black foot disease (black foot disease): failed to protect propagation against black foot disease under field conditions
Cyclo-(VKLfP(W,f)NQY) (VKLFPWFNQY; HELM PEPTIDE1{V.K.L.[dF].P.W.[dF].N.Q.Y}$PEPTIDE1,PEPTIDE1,1:R1-10:R2$$$V2.0; SMILES CC(C)C[C@@H]1NC(=O)[C@H](CCCCN)NC(=O)[C@H](C(C)C)NC(=O)[C@H](Cc2ccc(O)cc2)NC(=O)[C@H](CCC(N)=O)NC(=O)[C@H](CC(N)=O)NC(=O)[C@@H](Cc2ccccc2)NC(=O)[C@H](Cc2c[nH]c3ccccc23)NC(=O)[C@@H]2CCCN2C(=O)[C@@H](Cc2ccccc2)NC1=O) [TrcB1/B1′]	5.9 ± 0.6 (3)	3.6 ± 0.1 (6)	
Cyclo-(VKLfPFfNQY) (chain 1 VKL[dF]PF[dF]NQY; chain 2 VKL[dF]PF[dF]NQY; also: head-to-tail to a chain's N/C-terminus; listed as Bacillus aneurinolyticus) [TrcA1]	7.9 ± 0.7 (3)	4.1 ± 0.7 (6)	
Cyclo-(VKLfPWwNQY) (chain 1 VKL[dF]PW[dW]NQY; chain 2 VKL[dF]PW[dW]NQY; also: head-to-tail to a chain's N/C-terminus; listed as Bacillus aneurinolyticus) [TrcC1]	32 ± 2.8 (3)	8.9 ± 1.5 (3)	
Cyclo-(VOLfP(W,f)NQY) (VXLFPWFNQY; HELM PEPTIDE1{V.[Orn].L.[dF].P.W.[dF].N.Q.Y}$PEPTIDE1,PEPTIDE1,1:R1-10:R2$$$V2.0; SMILES CC(C)C[C@@H]1NC(=O)[C@H](CCCN)NC(=O)[C@H](C(C)C)NC(=O)[C@H](Cc2ccc(O)cc2)NC(=O)[C@H](CCC(N)=O)NC(=O)[C@H](CC(N)=O)NC(=O)[C@@H](Cc2ccccc2)NC(=O)[C@H](Cc2c[nH]c3ccccc23)NC(=O)[C@@H]2CCCN2C(=O)[C@@H](Cc2ccccc2)NC1=O) [TrcB/B′]	11 ± 4.0 (3)	5.1 ± 1.0 (6)	
Cyclo-(VOLfPFfNQF) (chain 1 V[Orn]L[dF]PF[dF]NQF; chain 2 V[Orn]L[dF]PF[dF]NQF; also: head-to-tail to a chain's N/C-terminus; listed as Bacillus aneurinolyticus) [PhcA]	7.2 ± 1.0 (3)	6.9 ± 1.4 (5)	loss of activity from PDB to YTSB (Fusarium solani; F. solani, PDB (low salt) vs YTSB (high salt)): ~5 fold; loss of activity from PDB to YTSB (Botrytis cinerea; B. cinerea, PDB (low salt) vs YTSB (high salt)): ~2 fold
Cyclo-(VOLfPWwNQW) (chain 1 V[Orn]L[dF]PW[dW]NQW; chain 2 V[Orn]L[dF]PW[dW]NQW; also: head-to-tail to a chain's N/C-terminus; listed as Bacillus aneurinolyticus) [TpcC]	4.6 ± 0.9 (3)	3.6 ± 0.2 (6)	decrease in activity from YTSB to PDB (Fusarium solani; F. solani, YTSB (high salt) vs PDB (low salt)): approximately twofold; decrease in activity from PDB to YTSB (Botrytis cinerea; B. cinerea, YTSB (high salt) vs PDB (low salt)): approximately twofold
Cyclo-(VOLfPWwNQY) (chain 1 V[Orn]L[dF]PW[dW]NQY; chain 2 V[Orn]L[dF]PW[dW]NQY; also: head-to-tail to a chain's N/C-terminus; listed as Bacillus aneurinolyticus) [TrcC]	4.3 ± 0.4 (3)	3.5 ± 0.2 (6)	
